Measurements published in US4045298A, “Antibiotic XK-62-2 and process for production thereof” (priority 1972, dated 1977).
Values after ≈ are worked out from the molar mass of the structure shown.

What was measured:
[1] = system: Pseudomonas aeruginosa BMH No. 1; assay: In vivo protection of mice against bacterial infection; details: subcutaneous, inoculum 3.8×10^8 cells/mouse intraperitoneal
Protocol: In addition, the in vivo activity of XK-62-2 against pathogenic bacterial infections in mice is tested. The mice are infected with an inoculum of 3.8× 10^8 cells/mouse of Pseudomonas aeruginosa BMH No. 1 or 6.6× 10^7 cells/mouse of Pseudomonas aeruginosa KY 8510 by intraperitoneal injection. They are then treated with various doses of the test antibiotic by subcutaneous injection. The effect of XK-62-2 on the protection of the bacterial infections is shown in the following Table 8 wherein ten mice are used in each test.

[2] = system: Escherichia coli KY 8315; assay: Antibacterial spectra by agar dilution method; format: cell-based; details: KY8315, resistant to streptomycin, kanamycin, paromomycin and neomycin, read-out: Minimum inhibitory concentration
Source text: (§1) Antibacterial spectra of XK-62-2 by agar

[3] = system: Escherichia coli KY 8302; assay: Antibacterial spectra by agar dilution method; format: cell-based; details: KY8302, resistant to chloramphenicol, streptomycin, kanamycin, paromomycin, tetracycline and spectinomycin, read-out: Minimum inhibitory concentration
Source text: as §1

[4] = system: Escherichia coli KY 8310; assay: Antibacterial spectra by agar dilution method; format: cell-based; details: KY8310, resistant to chloramphenicol, streptomycin, kanamycin, gentamicin, kanendomycin, paromomycin, tetracycline and spectinomycin, read-out: Minimum inhibitory concentration
Source text: as §1

[5] = system: Staphylococcus aureus KY 8942; assay: Antibacterial spectra by agar dilution method; format: cell-based; details: KY8942, resistant to kanamycin, paromomycin and streptomycin, read-out: Minimum inhibitory concentration
Source text: as §1

[6] = system: Shigella sonnei ATCC 9290; assay: Antibacterial spectra by agar dilution method; format: cell-based; details: ATCC9290, Table 5, read-out: Minimum inhibitory concentration
Source text: as §1

[7] = system: Bacillus cereus ATCC 9634; assay: Antibacterial spectra by agar dilution method; format: cell-based; details: ATCC9634, Table 5, read-out: Minimum inhibitory concentration
Source text: as §1

[8] = system: Salmonella typhosa ATCC 9992; assay: Antibacterial spectra by agar dilution method; format: cell-based; details: Salmonella enterica, read-out: Minimum inhibitory concentration
Source text: as §1

[9] = system: Staphylococcus aureus KY 8957; assay: Antibacterial spectra by agar dilution method; format: cell-based; details: KY8957, resistant to chloramphenicol, streptomycin, kanendomycin, tetracycline and paromomycin, read-out: Minimum inhibitory concentration
Source text: as §1

[10] = system: Pseudomonas aeruginosa BMH No. 1; assay: Antibacterial spectra by agar dilution method; format: cell-based; details: BMHNO.1, Table 5, read-out: Minimum inhibitory concentration
Source text: as §1

[11] = system: Streptococcus faecalis ATCC 10541; assay: Antibacterial spectra by agar dilution method; format: cell-based; details: Enterococcus faecalis, ATCC10541, Table 5, read-out: Minimum inhibitory concentration
Source text: as §1

[12] = system: Staphylococcus aureus KY 8956; assay: Antibacterial spectra by agar dilution method; format: cell-based; details: KY8956, resistant to streptomycin, paromomycin, tetracycline, erythromycin and oleandomycin, read-out: Minimum inhibitory concentration
Source text: as §1

[13] = system: Escherichia coli ATCC 26; assay: Antibacterial spectra by agar dilution method; format: cell-based; details: ATCC26, Table 5, read-out: Minimum inhibitory concentration
Source text: as §1

[14] = system: Staphylococcus aureus KY 8953; assay: Antibacterial spectra by agar dilution method; format: cell-based; details: KY8953, resistant to streptomycin, kanamycin, paromomycin, tetracycline, neomycin, kanendomycin and erythromycin, read-out: Minimum inhibitory concentration
Source text: as §1

[15] = system: Bacillus cereus var. myccides ATCC 9463; assay: Antibacterial spectra by agar dilution method; format: cell-based; details: ATCC9463, Table 5, read-out: Minimum inhibitory concentration
Source text: as §1

[16] = system: Bacillus subtilis No. 10707; assay: Antibacterial spectra by agar dilution method; format: cell-based; details: Table 5, read-out: Minimum inhibitory concentration
Source text: as §1

[17] = system: Klebsiella pneumoniae ATCC 10031; assay: Antibacterial spectra by agar dilution method; format: cell-based; details: ATCC10031, Table 5, read-out: Minimum inhibitory concentration
Source text: as §1

[18] = system: Staphylococcus aureus ATCC 6538P; assay: Antibacterial spectra by agar dilution method; format: cell-based; details: ATCC6538P, Table 5, read-out: Minimum inhibitory concentration
Source text: as §1

[19] = system: Klebsiella pneumoniae No. 8045; assay: In vivo activity against pathogenic bacterial infections in mice
Source text: (§2) The in vivo activity of XK-62-2 against pathogenic bacterial infections in mice is further tested using various Gram-positive and Gram-negative bacteria. The mice are infected with an inoculum of the bacteria by intraperitonial injection and then treated with the test antibiotic by subcutaneous injection.

[20] = system: Escherichia coli GN 2411-5; assay: as above
Source text: as §2

[21] = system: Proteus mirabilis No. 39; assay: Minimum inhibitory concentration by agar dilution method; format: cell-based; details: NO.39, agar dilution, Table 6, read-out: Minimum inhibitory concentration
Source text: (§3) The comparative in vitro activities of these antibiotics against various microorganisms of the genus Proteus are shown in the following Table 6.
(§4) Minimum inhibitory concentration
(§5) (γ/ml : by agar dilution method)

[22] = system: Proteus morganii Jenkins; assay: as above; format: cell-based; details: Morganella morganii; agar dilution; Table 6; read-out: Minimum inhibitory concentration
Source text: as §3, §4, §5

[23] = system: Proteus vulgaris KY 4297; assay: as above; format: cell-based; details: KY4297, Table 6
Source text: as §3, §4, §5

[24] = system: Proteus mirabilis Finland 9; assay: as above; format: cell-based; details: FINLAND9, agar dilution, Table 6, read-out: Minimum inhibitory concentration
Source text: as §3, §4, §5

[25] = system: Proteus vulgaris KY 4296; assay: as above; format: cell-based; details: KY4296, Table 6
Source text: as §3, §4, §5

[26] = system: Proteus mirabilis No. 825; assay: as above; format: cell-based; details: NO.825, agar dilution, Table 6, read-out: Minimum inhibitory concentration
Source text: as §3, §4, §5

[27] = system: Proteus rettgeri Booth; assay: as above; format: cell-based; details: Providencia rettgeri; agar dilution; Table 6; read-out: Minimum inhibitory concentration
Source text: as §3, §4, §5

[28] = system: Proteus rettgeri Hambrook; assay: as above; format: cell-based; details: Providencia rettgeri; agar dilution; Table 6; read-out: Minimum inhibitory concentration
Source text: as §3, §4, §5

[29] = system: Proteus vulgaris Abbott JJ; assay: as above; format: cell-based; details: agar dilution, Table 6, read-out: Minimum inhibitory concentration
Source text: as §3, §4, §5

CNC[C@@H]1CC[C@@H](N)[C@@H](O[C@H]2[C@H](O)[C@@H](O[C@H]3OC[C@](C)(O)[C@H](NC)[C@H]3O)[C@H](N)C[C@@H]2N)O1 [XK-62-2] showed a Survival of mice ([1]; 0.125 mg/mouse) of 0%, a Survival of mice ([1]; 0.25 mg/mouse) of 10% and a Survival of mice ([1]; 0.5 mg/mouse) of 50%. The Survival of mice ([1]; 1 mg/mouse) was 90%, the Survival of mice ([1]; 2 mg/mouse) was 100% and the MIC [2] was 0.016 µg/mL (≈ 0.0345 µM). It also gave an MIC [3] of 0.033 µg/mL (≈ 0.0712 µM), an MIC [4] of 1.05 µg/mL (≈ 2.27 µM) and an MIC [5] of 0.065 µg/mL (≈ 0.14 µM). It also gave an MIC [6] of 0.07 µg/mL (≈ 0.151 µM), an MIC [7] of 0.016 µg/mL (≈ 0.0345 µM) and an MIC [8] of 0.018 µg/mL (≈ 0.0388 µM). For the same compound, the MIC [9] was 0.0021 µg/mL (≈ 0.00453 µM), the MIC [10] was 0.53 µg/mL (≈ 1.14 µM) and the MIC [11] was 1.05 µg/mL (≈ 2.27 µM). For the same compound, the MIC [12] was < 0.001 µg/mL, the MIC [13] was 0.0082 µg/mL (≈ 0.0177 µM) and the MIC [14] was 0.0041 µg/mL (≈ 0.00884 µM). The MIC [15] was 0.0082 µg/mL (≈ 0.0177 µM), the MIC [16] was < 0.004 µg/mL and the MIC [17] was 0.0082 µg/mL (≈ 0.0177 µM). For the same compound, the MIC [18] was < 0.0041 µg/mL, the ED50 ([19]; Klebsiella pneumoniae, NO.8045, sc, subcutaneous, challenge inoculum 1.4×10^8 cells/mouse, read-out: Median effective dose [ED50]) was 5.7 ± 1.4 mg/kg and the “Ratio XK-62-2/gentamicin complex” value ([19]; ratio of ED50) was 0.74. For the same compound, the ED50 ([20]; Escherichia coli, GN2411, sc, subcutaneous, challenge inoculum 3.6×10^6 cells/mouse, read-out: Median effective dose [ED50]) was 10.8 ± 4.1 mg/kg, the “Ratio XK-62-2/gentamicin complex” value ([20]; ratio of ED50) was 1.01 and the MIC [21] was 0.021 µg/mL (≈ 0.0453 µM). For the same compound, the MIC [22] was 0.04 µg/mL (≈ 0.0863 µM), the MIC [23] was 0.021 µg/mL (≈ 0.0453 µM) and the MIC [24] was 0.04 µg/mL (≈ 0.0863 µM). The MIC [25] was 0.021 µg/mL (≈ 0.0453 µM), the MIC [26] was 0.021 µg/mL (≈ 0.0453 µM) and the MIC [27] was 0.021 µg/mL (≈ 0.0453 µM). It also gave an MIC [28] of 0.021 µg/mL (≈ 0.0453 µM) and an MIC [29] of 0.021 µg/mL (≈ 0.0453 µM).
